Laboratory results as given in US11235001B2, “RUNX inhibitor” (KYOTO UNIVERSITY, priority 2016, dated 2022).
pIC50: −log10 of the molar value.

Tests used:
NB4 (p53MT) = assay: cells; conditions: Homo sapiens
UF1 (p53Null) = assay: cells; conditions: Homo sapiens
[1] = test system: BCL11A, TRIM24, p21, BAX, PUMA, MDM2, PARP, cleaved caspase-3; assay: Immunoblotting of p53 pathway and apoptosis proteins in MV4-11 cells; assay type: cell-based, human; conditions: 1 μM, 24 hours
Method: Cells were washed twice with ice cold phosphate-buffered saline (PBS) and harvested in protein lysis buffer [50 mM Tris (pH 7.4), 100 mM NaCl, 0.1 mM EDTA, 1 mM phenylmethylsulfonyl fluoride, 1 mM β-glycerophosphate, 2.5 mM sodium pyrophosphate, 1 mM Na3VO4, lx protease inhibitor (Roche) and PhosSTOP (Roche)]. Whole cell extracts were separated by SDS-polyacrylamide gel electrophoresis (SDS-PAGE) and electrotransferred onto polyvinylidene difluoride membranes. Membranes were probed with the following antibodies: anti-Ctip1 antibody (Abcam, ab19487), anti-TRIM24 antibody (Bethyl Laboratories, Inc), anti-RUNX1 antibody (A-2), anti-GAPDH (FL-335), anti-p21 (C-19), anti-Bax (N-20) antibodies (Santa Cruz Biotechnology, Inc.), anti-RUNX2, anti-RUNX3, anti-p53 antibodies (Cell Signaling Technology), anti-CBFβ antibody (FL-182, Santa Cruz Biotechnology, Inc.), anti-cleaved caspase-3 antibody (5A1E, Cell Signaling Technology), anti-PARP antibody (46D11, Cell Signaling Technology). For secondary antibodies, anti-rabbit IgG, or anti-mosue IgG HRP-linked antibodies (Cell Signaling Technology) were used. Blots were detected using Chemi-Lumi One Super (nacalai tesque, Inc.) and ChemiDoc™ XRS+ Imager (Bio-Rad Laboratories, Inc.), as recommended by the manufacturers. Protein levels were quantified with Image Lab Software (Bio-Rad Laboratories, Inc.).
Briefly, MV4-11 cells were treated with 1 μM Chb-M′ or Chb-50 for 24 hours. The treated cells were dissolved in the protein lysis buffer. Whole cell extracts were resolved by SDS-polyacrylamide gel electrophoresis (SDS-PAGE) and transferred onto polyvinylidene difluoride membranes. The membranes were probed with each antibody. Blots were detected and quantified. As a control, the cells treated with DMSO were used.

[2] = test system: RUNX family (RUNX1, RUNX2 and RUNX3); assay: Gene expression microarray in MV4-11 cells vs RUNX family knockdown; assay type: cell-based, human; conditions: 1 μM, 6 hours, top 500 up- and down-regulated genes
SU/SR cells [3] = conditions: read-out: IC50 value; SU/SR (imatinib-resistant), 48 hours
[4] = test system: AML cell lines expressing functional p53 (MV4-11, OCI-AML2, OCI-AML3 and MOLM-13); assay: Growth inhibition assay of AML cell lines expressing functional p53; assay type: cell-based, human; conditions: 48 hours; at between nanomolar to low micromolar levels
Method: Growth inhibition of some AML cell lines expressing functional p53 (MV4-11, OCI-AML2, OCI-AML3 and MOLM-13) by PI polyamide conjugates at different concentrations was tested. Briefly, the cells were placed at a density of 1×10^5 cells/mL. Different concentrations of a PI polyamide conjugate (Chb-M′ or Chb-50) were added to media, and the cells were incubated for 48 hours (n=3). The number of viable cells when the PI polyamide conjugate was not added was used as a control (DMSO control). Cell viability was assessed by counting the viable cells with Cell Count Reagent SF (Nacalai tesque, Inc.) and Infinite (registered trademark) 200 PRO multimode reader (TECAN) according to the manufacturer's instructions.

SU-Ph2 cells = assay: Cell growth inhibition assay, SU-Ph2 cells; assay type: cell-based, human; conditions: SU-Ph2, 48 hours
[5] = test system: BCL11A, TRIM24, p53, p21, BAX, PUMA and MDM2; assay: qRT-PCR of p53 suppressors and p53 target genes in MV4-11 cells; assay type: cell-based, human; conditions: 1 μM, 6 hours
Method: A total RNA was isolated with RNeasy mini kit (Qiagen) and reverse transcribed with Reverse script kit (TOYOBO) to generate cDNA. Real-time quantitative polymerase chain reaction (PCR) was carried out with 7500 Real-Time PCR System (Applied Biosystems) according to the manufacturer's instructions. Results were normalized to GAPDH levels. Relative expression levels were calculated using the 2-ΔΔCt method.

IL3, CSF2 and CSF2RB = assay: qRT-PCR of RUNX1 target genes in MV4-11 cells; assay type: cell-based, human; conditions: 5 μM, 6 hours
[6] = test system: medulloblastoma cell line DAOY; assay: cells; conditions: Homo sapiens, 48 h
LNCaP cells = assay: cells; conditions: Homo sapiens, 48 h, read-out: IC50 (μM) in LNCaP cells
DU-145 cells = assay: cells; conditions: Homo sapiens, DU-145, 48 h, read-out: IC50 (μM) in DU-145 cells
[7] = test system: p53-mutated colon cancer cell line HT29; conditions: HT29, 72 hours
Kasumi-1 = assay: cells; conditions: Homo sapiens, Kasumi 1, 48 h, read-out: IC50 (μM) of PRIMA-1 single agent administration
MV4-11NR = assay: cells; conditions: Homo sapiens, 48 h, read-out: IC50 (μM) of PRIMA-1 single agent administration
KG1a = assay: cells; conditions: Homo sapiens, KG-1a, 48 h, read-out: IC50 (μM) of PRIMA-1 single agent administration
HL60 = assay: cells; conditions: Homo sapiens, HL-60, 48 h, read-out: IC50 (μM) of PRIMA-1 single agent administration
THP-1 = assay: cells; conditions: Homo sapiens, THP-1, 48 h, read-out: IC50 (μM) of PRIMA-1 single agent administration
MV4-11 cells = assay: Xenograft AML mouse model (MV4-11); assay type: in vivo; conditions: NOG mice with MV4-11, day 14
A549 cells = assay: Xenograft lung cancer mouse model (A549); assay type: in vivo
SU/SR cells [8] = assay: Xenograft ALL mouse model (SU/SR); assay type: in vivo; conditions: NOG mice with SU/SR

CC1=C(/C=C/C(C)=C/C=C/C(C)=C/C(=O)O)C(C)(C)CCC1 [ATRA, all-trans-retinoic acid]
pIC50 (NB4 (p53MT); 48 h): 4.12
pIC50 (NB4 (p53MT); 72 h): 4.22
pIC50 (UF1 (p53Null); 48 h): 4.91
pIC50 (UF1 (p53Null); 72 h): 4.99

CN(C)CCCNC(=O)c1nc(NC(=O)c2nc(NC(=O)c3cc(NC(=O)c4nc(NC(=O)CCCNC(=O)c5cc(NC(=O)c6nc(NC(=O)c7cc(NC(=O)c8cc(NC(=O)CCNC(=O)CCCc9ccc(N(CCCl)CCCl)cc9)cn8C)cn7C)cn6C)cn5C)cn4C)cn3C)cn2C)cn1C [Chb-50]
Cleaved form of PARP and cleaved caspase-3 (apoptosis) [1]: emergence
Protein expression levels of p53 and downstream proteins (p21, BAX) [1]: increased
Protein expression levels of suppressors of p53 (BCL11A and TRIM24) [1]: reduced
Gene expression pattern vs cells with all RUNX family members knockdown [2]: significantly correlated
pIC50 (SU/SR cells [3]): 5.85
Growth inhibition of AML cells [4]: highly effective
IC50 compared with that of imatinib (SU-Ph2 cells): lower IC50 values
Gene expressions of p53 suppressors BCL11A and TRIM24 [5]: down-regulated
mRNA expression level of p53 [5]: unchanged
mRNA expression levels of p21 and PUMA [5]: increased
Expressions of RUNX1 target genes (IL3, CSF2, and CSF2RB), mRNA (IL3, CSF2 and CSF2RB): effectively inhibited

O=C(O)CCCc1ccc(N(CCCl)CCCl)cc1 [Chlorambucil]
pIC50 [6]: 4.74
IC50 (LNCaP cells): 37.6 µM
IC50 (DU-145 cells): 38.1 µM
IC50 (μM) [7]: Not measurable

O=C1C2CCN(CC2)C1(CO)CO [PRIMA-1, 2,2-bis(hydroxymethyl)-1-azabicyclo[2.2.2]octan-3-one]
IC50 (Kasumi-1): 7.03 µM
IC50 (MV4-11NR): 5.5 µM
IC50 (KG1a): > 100 µM
IC50 (HL60): 5.74 µM
IC50 (THP-1): 6 µM

Nc1ccn([C@@H]2O[C@H](CO)[C@@H](O)[C@@H]2O)c(=O)n1 [cytarabine, reference compound]
H&E staining of bone marrow (MV4-11 cells): little change
hCD45 staining of bone marrow (human leukemia cells) (MV4-11 cells): filled with leukemia cells

COc1cc2ncnc(Nc3ccc(F)c(Cl)c3)c2cc1OCCCN1CCOCC1 [gefitinib, reference compound]
Effect on the lung cancer model (A549 cells; A549 xenograft): did not show effect
H&E staining of lung tissue (lung cancer cells in pulmonary alveoli) (A549 cells; day 14 after transplantation): densely filled with lung cancer cells
Brightness of luciferase (IVIS), lung (A549 cells; day 14 after transplantation, after 2 administrations): increased
Brightness of luciferase (IVIS), lung (A549 cells; day 21 after transplantation, after total 4 administrations): increased

Cc1ccc(NC(=O)c2ccc(CN3CCN(C)CC3)cc2)cc1Nc1nccc(-c2cccnc2)n1 [imatinib, reference compound]
H&E staining of bone marrow (SU/SR cells [8]): little change
Invasion of liver by transplanted PhALL cells (hCD45 staining) (SU/SR cells [8]): not inhibited
Invasion of spleen by transplanted PhALL cells (hCD45 staining), compared with liver (SU/SR cells [8]): same results
hCD45 staining of bone marrow (human leukemia cells) (SU/SR cells [8]): filled with leukemia cells
